According to patent US20100056623A1, “FUMAGILLOL DERIVATIVES OR METHOD FOR PREPARATION OF FUMAGILLOL DERIVATIVES, AND PHARMACEUTICAL COMPOSITIONS COMPRISING THE SAME” (CHONG KUN DANG PHARMACEUTICAL CORP., priority 2005, published 2010):
Like-named read-outs stand apart in the source and are kept apart here.

Tests used:
[1] = system: CPAE (calf pulmonary artery endothelial cell); test: Inhibiting activity on cell proliferation, SRB analysis (CPAE); assay type: cell-based; settings: for IC50: CPAE cells, 3 days with drug, SRB, read-out: IC50 (nM) CAPE; for Selectivity Index (L5178Y/CAPE): IC50 L5178Y / IC50 CPAE
Experimental: (§1) In order to compare the safety index (SI) of CPAE (calf pulmonary artery endothelial cell) with that of HUVEC (human umbilical vein endothelial cell), L5178Y lymphoma that was isolated from murine thymus was used. The safety index was defined as IC50 ratio of L5178Y against CPAE (IC50L5178Y/IC50CPAE). All cell lines, which had been kept in liquid nitrogen tank, were used after being thawed and subcultured 2˜3 times in T-flask. CPAE, HUVEC and L5178Y were cultured in MEM culture medium (20% FBS, 50˜100 μg/ml ECGS, 0.15% baking soda, 0.05 mg/ml gentamicin), M199 culture medium (20% FBS, 0.22% baking soda, 100 μg/ml heparin, 3 ng/ml bFGF, 0.05 mg/ml gentamicin) and RPMI 1640 culture medium (10% FBS, 0.2% baking soda, 0.05 mg/ml gentamicin), respectively, under the condition of 37° C. and 5% CO2.
(§2) The drug was prepared by being gradationally diluted to two or ten times by using PBS, 20 μl of the solution was added to each well of 96 well plate in triplicate. The cell, which is being incubated, was treated with trypsin to give cell suspension. The number of cell thereafter was counted. And 180 μl of the solution was inoculated to each well and cultured.
(§3) The cell was cultured with drugs for 3 days and then 50 μl of 50% TCA was added thereto (final concentration 10%). Subsequently the cell was fixed by being left alone at 4° C. for 1 hour. The well was washed 4 times by distilled water and then dried. After that 100 μl of SRB (Sulforhodamine B, Sigma Chemical Co.) solution (0.4% w/v in 1% acetic acid) was added thereto and then it was left alone at ordinary temperature for 30 minutes. Thereafter the well was washed 4 times by 1% acetic acid and dried. And then after adding 200 μl of 10 mM tris buffer, the absorbance at 570 nm was measured by automatic microplate reader (Model: Elx 808, Bio-Tek Instrument, INC). The viability was calculated from the ratio of the absorbance of the control to which drugs were not added and the well to which drugs were added.

[2] = system: HUVEC (human umbilical vein endothelial cell); test: Inhibiting activity on cell proliferation, SRB analysis (HUVEC); assay type: cell-based; settings: HUVEC cells, 3 days with drug
Experimental: as §1, §2, §3

L5178Y lymphoma = test: Inhibiting activity on cell proliferation, MTT analysis (L5178Y); assay type: cell-based, murine; settings: L5178Y lymphoma cells, 3 days with drug
Experimental: as §1, §2
The tumor cell was cultured with drugs for 3 days and then 50 μl of MTT (3-(4,5-dimethylthiazole-2-yl)-2,5-diphenyl tetrazolium bromide, Sigma Chemical Co.) solution (2.5 mg/ml in PBS) was added thereto. And it was further cultured for 4 hours at 37° C. Culture medium was removed carefully. And after dissolving formazan crystal by adding 150 μl of DMSO, the absorbance at 570 nm was determined.

Solubility test = assay type: physicochemical; settings: ordinary temperature
Experimental: To a constant amount (400 mg) of each compounds of present invention, a constant amount of demineralized water, methanol and ethanol were added separately, and the solution was stirred at ordinary temperature.

[3] = Chemical stability test (HPLC purity); settings: for 1 month Other peaks (%) / 1 month Parent peak (%) / Initial Other peaks (%) / Initial Parent peak (%): HPLC; for 1 month Other peaks (%) / 1 month Parent peak (%): air-tight vessel; for change of purity (%): initial vs 1 month at 40±2° C.
[4] = 1 month at 40±2° C., 75±5% relative humidity
[5] = Bos taurus, Endothelial cell, 72 h

## CO[C@@H]1[C@H](OC(=O)C=Cc2ccc(OCCN(C)C)cc2)CC[C@]2(CO2)[C@H]1[C@@]1(C)O[C@@H]1CC=C(C)C [CKD-732, O-(4-dimethylaminoethoxycinnamoyl)fumagillol, reference compound]
[1]
  IC50: 0.648 nM
  Selectivity Index (L5178Y/CAPE): 1.35 × 10^4
[2]
  IC50: 0.0066 nM
L5178Y lymphoma
  IC50: 8720 nM
Solubility test
  The amount of solvent to dissolve 1 g of the compounds (ml), demineralized water: 1100 mL
  The amount of solvent to dissolve 1 g of the compounds (ml), ethanol: 219 mL
  The amount of solvent to dissolve 1 g of the compounds (ml), methanol: 197 mL
[3]; [4]
  1 month Other peaks (%): 4.6%
  1 month Parent peak (%): 95.4%
[3]
  Initial Other peaks (%): 0.8%
  Initial Parent peak (%): 99.2%
[3]; 75±5% relative humidity
  change of purity (%): 3.8%

## COc1cc(/C=C/C(=O)O[C@@H]2CC[C@]3(CO3)[C@@H]([C@@]3(C)O[C@@H]3CC=C(C)C)[C@@H]2OC)cc(OC)c1Oc1ccc(CO)cc1 [Example 9, O-(3,5-dimethoxy-4-(4-hydroxymethylphenoxy)cinnamoyl)fumagillol]
[1]; [5]
  IC50: 0.811 nM
[1]
  Selectivity Index (L5178Y/CAPE): 7.54 × 10^4
[2]; Homo sapiens, 72 h
  IC50: 0.00361 nM
L5178Y lymphoma; Mus musculus, 72 h
  IC50: 61200 nM

## CO[C@@H]1[C@H](OC(=O)NC(=O)CCl)CC[C@]2(CO2)[C@H]1[C@@]1(C)O[C@@H]1CC=C(C)C [TNP-470, O-chloroacetylcarbamoylfumagillol, reference compound]
[1]; [5]
  IC50: 0.449 nM
[1]
  Selectivity Index (L5178Y/CAPE): 3.85 × 10^3
[2]; Homo sapiens, 72 h
  IC50: 0.00896 nM
L5178Y lymphoma; Mus musculus, 72 h
  IC50: 4300 nM
Solubility test
  The amount of solvent to dissolve 1 g of the compounds (ml), demineralized water: 876 mL
  The amount of solvent to dissolve 1 g of the compounds (ml), ethanol: 250 mL
  The amount of solvent to dissolve 1 g of the compounds (ml), methanol: 208 mL
[3]; [4]
  1 month Other peaks (%): 3.5%
  1 month Parent peak (%): 96.5%
[3]
  Initial Other peaks (%): 1.3%
  Initial Parent peak (%): 98.7%
[3]; 75±5% relative humidity
  change of purity (%): 2.2%

## CO[C@@H]1[C@H](OC(=O)/C=C/c2ccc(Cl)c(NCCO)c2)CC[C@]2(CO2)[C@H]1[C@@]1(C)O[C@@H]1CC=C(C)C [Example 7, O-(4-chloro-3-(2-hydroxyethylamino)cinnamoyl)fumagillol]
[1]; [5]
  IC50: 0.0065 nM
[1]
  Selectivity Index (L5178Y/CAPE): 4.77 × 10^6
[2]; Homo sapiens, 72 h
  IC50: 0.0017 nM
L5178Y lymphoma; Mus musculus, 72 h
  IC50: 31000 nM
Solubility test
  The amount of solvent to dissolve 1 g of the compounds (ml), demineralized water: 137 mL
  The amount of solvent to dissolve 1 g of the compounds (ml), ethanol: 67 mL
  The amount of solvent to dissolve 1 g of the compounds (ml), methanol: 42 mL
[3]; [4]
  chemical stability compared to known compounds: more excellent chemical stability than TNP-470, CKD-732 and CKD-731
  1 month Other peaks (%): 1.1%
  1 month Parent peak (%): 98.9%
[3]
  Initial Other peaks (%): 0.6%
  Initial Parent peak (%): 99.4%
[3]; 75±5% relative humidity
  change of purity (%): 0.5%

## CO[C@@H]1[C@H](OC(=O)/C=C/c2ccc(OCCCCCO)c([N+](=O)[O-])c2)CC[C@]2(CO2)[C@H]1[C@@]1(C)O[C@@H]1CC=C(C)C [Example 24, O-(3-nitro-4-(5-hydroxypentoxy)cinnamoyl)fumagillol]
[1]; [5]
  IC50: 0.0946 nM
[1]
  Selectivity Index (L5178Y/CAPE): 1.10 × 10^5
[2]; Homo sapiens, 72 h
  IC50: 0.0042 nM
L5178Y lymphoma; Mus musculus, 72 h
  IC50: 10400 nM

## COc1ccc(/C=C/C(=O)O[C@@H]2CC[C@]3(CO3)[C@@H]([C@@]3(C)O[C@@H]3CC=C(C)C)[C@@H]2OC)cc1Oc1ccc(CO)cc1 [Example 11, O-(3-(4-hydroxymethylphenoxy)-4-methoxycinnamoyl)fumagillol]
[1]; [5]
  IC50: 0.655 nM
[1]
  Selectivity Index (L5178Y/CAPE): 1.15 × 10^5
[2]; Homo sapiens, 72 h
  IC50: 0.0036 nM
L5178Y lymphoma; Mus musculus, 72 h
  IC50: 75000 nM
